Data as given in publication PMC11768549, “Optimization of Toxicity, Biodegradability, and Skin Irritation in Formulations Containing Mixtures of Anionic and Nonionic Surfactants Combined with Silica Nanoparticles” (Toxics, 2025).

Key:
Vibrio fischeri = experiment: Luminescence inhibition assay in Vibrio fischeri (ISO 11348-2:2007, LumiStox 300); type: cell-based; details: 50% bioluminescence inhibition after 30 min exposure, pH 7.0, 2% NaCl; mixtures 1:1
Method: The toxicity measurement is based on the luminous intensity of marine bacteria of the strain V. fischeri NRRLB11177 after exposure to a toxic substance. Measurements were taken using the LumiStox 300 system, which includes a bioluminescence measuring instrument and an incubation unit, in accordance with the ISO 11348-2:2007 guideline. The luminescent bacteria, which were dehydrated and frozen at −18 °C, were reactivated with a suspension provided by Dr. Lange. The assay conditions were maintained at a pH of 7.0 with a NaCl concentration of 2%. Triplicate measurements were taken at incubation times of 30 min. The toxicity values were determined as EC50, representing the surfactant concentrations that inhibit 50% of the bioluminescence after 30 min of exposure. If necessary, the sample was filtered prior to the assay.
(§1) The toxicity of individual anionic and nonionic surfactants on V. fischeri and L. sativum was evaluated, and their EC50 results are presented in Table 2. For V. fischeri, toxicity values are expressed as EC50 values, determined using a logarithmic plot of sample concentration versus the percentage reduction in light intensity after a 30-min exposure period. This indicates the concentration at which there is a 50% reduction in bioluminescence. Similarly, for L. sativum, toxicity values are also expressed as EC50 values, which represent the concentration at which 50% growth inhibition is observed. This was measured by assessing the root and stem elongation after a 72-hour exposure period. The specific growth parameters, such as root length reduction, were used to determine the EC50 values.
(§2) The model of toxic units (MTU) was applied to quantify the interactions between toxicants in binary surfactant mixtures: FAE-R12–14E11 with EC-R12–14E3, FAE-R12–14E11 with EC-R12–14E10, and FAE-R12–14E11 with EC-R8E5. This approach helps predict whether the principles of concentration or response addition apply. The toxic unit for each component in the mixture (TUi) was calculated as the ratio between the concentration of the toxicant in the mixture [i] and its half-maximal effective concentration (EC50i) (Equation (7)). The total toxic unit of the mixture (TUmix) is the sum of the TUi values of the individual components […].(7) TUi=i/EC50i (8) TUmix=TUA+TUB=A/EC50A+B/EC50B
(§3) If the toxicants act independently (response addition), the predicted toxic unit (TUr) is calculated using Equations (9) and (10). If TUr ≈ TUmix, response addition can be expected.(9) If TUA>TUB TUr=1+TUB/TUA (10) If TUA<TUB TUr=1+TUA/TUB

Lepidium sativum = experiment: Germination test on Lepidium sativum seeds (ISO 18763:2016), root and stem elongation; type: in vivo; details: 72 h, 25 °C, dark, mixtures 1:1; for EC50, L. sativum (Root): 50% root growth inhibition; for EC50, L. sativum (Stem): 50% stem growth inhibition
Method: The germination test on L. sativum (cress) seeds is a static test of acute toxicity. This test allows for evaluating the phytotoxic effects produced in the seed germination process and the development of seedlings during the first days of growth (72 h). The garden cress test with L. sativum was carried out according to ISO-18763:2016 [28]. The inhibition in the elongation of the root and stem was determined.
Briefly, 25 L. sativum seeds were placed in a well-distributed manner in Petri dishes (100 mm Ø) containing filter paper saturated with 5 mL of the test solution. Distilled water was used as a control, and zinc (II) was used as a toxic reference compound. Each Petri dish was covered and sealed to prevent moisture loss. For 72 h, at 25 °C, and in the absence of light, the different samples were incubated in triplicate. Once the incubation was completed, the length of the root and stem of each germinated seed was measured with the help of graph paper. The inhibition of the root and stem growth by the test solutions was assessed in comparison with the control.
as §1, §2, §3

[1] = Static biodegradation test (OECD 301E), DOC removal; details: initial 25 mg·L^−1; for B (surfactant biodegradability): percentage biodegraded after 50 h of assay; for t1/2 (half-life of biodegradation): time for 50% decrease of substrate, graphical
Method: The static biodegradation tests were conducted according to the OECD 301E guidelines, which focus on the removal of organic compounds measured as dissolved organic carbon (DOC). Solutions of the surfactant and surfactant–co-surfactant mixtures, serving as the sole carbon source for microorganisms, were tested in a mineral medium inoculated and incubated under aerobic conditions in the dark for 28 days. The initial concentration of the test substance for surfactant and surfactant–co-surfactant mixtures was set at 25 mg·L^−1.
The surfactant solution, for which biodegradability was to be determined, was inoculated with 0.5 mL of water from the secondary treatment stage of a sewage treatment plant (STP) operating with activated sludge (plus code: 597G+W2, Granada, Spain). The biodegradation process was monitored by measuring the residual surfactant concentration over time through DOC determinations in samples, filtered through a 0.45 µm Millipore membrane, using the total organic carbon (TOC) analyser Shimadzu VCSH/CSH (Shimadzu Co., Kyoto, Japan). Reference assays were performed with an easily biodegradable surfactant (linear alkylbenzene sulfonate) to determine the activity of the microbial population present in the test medium. […] All samples were tested in duplicate. The experimental setup included two flasks for the blank, two for the reference surfactant, two for the abiotic assay, and two for each of the surfactant concentrations tested.
The biodegradation of surfactants and their binary mixtures was assessed under aerobic conditions following the OECD 301E guidelines for ready biodegradability. The process was tracked by measuring the dissolved organic carbon (DOC) in the samples over time. […] Abiotic control tests, using HgCl2 to inhibit biological activity, confirmed that surfactant concentrations remained at nearly 100% throughout the degradation period. […] Figure 1 illustrates the progression of ultimate biodegradation of the surfactants and binary mixtures over the testing period. The assays were initiated with surfactant concentrations of 25 mg·L^−1.
To compare and quantify the biodegradation test, two key parameters of the biodegradation profiles were defined and analysed: (a) Half-life (t1/2) is the time required for the substrate concentration to decrease by 50% from the start of the biodegradation process. This value is determined using graphical methods based on the biodegradation curve. (b) Surfactant biodegradability (B) is defined as the percentage of surfactant that is biodegraded after 50 h of assay. Half-time and surfactant biodegradability results are shown in Table 5, together with mineralization values obtained using Equation (11).(11) Mineralization (%)=DOCi− [DOC]f/ [DOC]i·100 where
• DOCi is the dissolved organic carbon at the beginning of the test; • DOCf is the dissolved organic carbon at the end of the test.

[2] = set-up: method as in doi:10.1016/j.molliq.2023.122021; details: cited from earlier work; for CMC (±SD): critical micelle concentration; for HLB: hydrophilic–lipophilic balance
zein = experiment: Irritation potential using the modified zein method (zein number); set-up: species or system corn; details: room temperature; for ZN 0.5%: each component 0.5% wt.; for ZN 1%: each component 1% wt.
Method: The irritant potential of surfactants, their mixtures, and the addition of silica nanoparticles was assessed using a modified zein method. This method is used to assess the potential irritation of chemicals or cosmetics on the skin. It is based on the interaction of a substance with proteins, particularly with the protein zein, which is a protein derived from corn. The modified zein method is recognized as an in vitro alternative to predict dermal irritation without the need to perform tests on animals. This method involves three stages to determine the amount of protein (zein) solubilized in a surfactant-containing solution: (1) zein denaturation, (2) oxidation and mineralization of organic matter, and (3) nitrate content measurement. All experiments were conducted at room temperature and performed in triplicate. For these tests, the final concentration of each component, whether pure or in a mixture, was set at 0.5% and 1% wt. These concentrations reflect typical dosages found in cosmetic, detergent, and personal hygiene products that come into direct contact with the skin. The zein number (ZN), expressed as mg of nitrogen (N) released per 100 g of surfactant solution, was calculated using the following formula: ZN = c/10(2) where c is the nitrogen concentration measured spectrophotometrically in ppm (mg·1000 mL^−1). Given that the density of the testing solution is 1 g·mL^−1, c is ultimately expressed as mg·1000 g^−1. Two control cases were used for validation: a negative control with deionized water and a positive control with 1% wt. sodium lauryl sulphate (SLS), a well-known surfactant with high irritant potential. The zein number (ZN) (Section 2.3) provides an indication of surfactant-induced potential skin irritation. According to the scale established by, surfactants can be classified as non-irritant, moderately irritant, irritant, or strongly irritant. The final concentration of each component, whether individual or in a mixture, was set at 0.5% and 1% wt.

Row | Substance | EC50, V. fischeri (Vibrio fischeri) [µg/mL] | EC50, L. sativum (Root) (Lepidium sativum) [µg/mL] | EC50, L. sativum (Stem) (Lepidium sativum) [µg/mL] | B (surfactant biodegradability) [1] [%] | t1/2 (half-life of biodegradation) [1] [h] | CMC (±SD) [2] | HLB [2] | ZN 0.5% (zein) | ZN 1% (zein)
1 | Laureth-11 Carboxylic Acid [EC-R12–14E10] | 14.18 ± 4.32 | 32.02 ± 8.90 | 60.11 ± 6.52 | 10.30 | 130.50 | 70.8 ± 7.2 [17] mg·L^−1 | 9.5 [17] |  | 
2 | Capryleth-6 Carboxylic Acid [EC-R8E5] | 32.76 ± 3.60 | 53.61 ± 7.20 | 64.77 ± 6.50 | 9.40 | 118.20 | 97.9 ± 6.5 [17] mg·L^−1 | 11–14 [17] | 49.15 ± 3.60 mg of nitrogen (N) released per 100 g of surfactant solution | 157.9 ± 7.40 mg of nitrogen (N) released per 100 g of surfactant solution
3 | Laureth-4 Carboxylic Acid [EC-R12–14E3] | 3.58 ± 1.28 | 35.40 ± 4.80 | 93.25 ± 8.90 | 1.25 | 330.90 | 33.7 ± 3.1 [17] mg·L^−1 | 5.5 [17] | 152.92 ± 7.25 mg of nitrogen (N) released per 100 g of surfactant solution | 183.5 ± 5.60 mg of nitrogen (N) released per 100 g of surfactant solution
4 | Laureth-11/Myreth-11 [FAE-R12–14E11] | 13.26 ± 3.26 | 338.17 ± 13.21 | 97.15 ± 7.14 | 2.40 | 185.80 | 18.5 ± 2.3 [17] mg·L^−1 | 14.3 [17] |  | 
